Patent US20250206732A1, “COMPOUNDS AND METHODS FOR THE TARGETED DEGRADATION OF KRAS” (Arvinas Operations, Inc., priority 2022, published 2025)

Assays:
[1] = biological target: T1, SW1573 HiBiT-KRASG12C (Homo sapiens, UniProt P01116, G12C); assay: HiBiT degradation assay (G12C), SW1573 HiBiT-KRASG12C cells; type: cell-based; conditions: 24 hours treatment; for DC50: HiBiT luminescence; for Dmax: maximum degradation observed;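 on DC50: Letter grades: C is 1000 to 3000 nM and D is above 3000 nM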
T1 construct: expressed in transfected cells
Procedure, shortened: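 SW1573 cells expressing N-terminal HiBiT-KRASG12C (clone E6) treated 24 h at 37 °C with 10 μM to 508 pM compound in 0.5% DMSO, triplicate. HiBiT lytic luminescence normalized to DMSO, 4-parameter fit gives DC50 and Dmax; points with ≥50% alamar blue viability loss excluded.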

[2] = biological target: T2, AsPC-1 HiBiT-KRASG12D (Homo sapiens, UniProt P01116, G12D); assay: HiBiT degradation assay (G12D), AsPC-1 HiBiT-KRASG12D cells; type: cell-based; conditions: 24 hours treatment; for DC50: AsPC-1 HiBiT-KRASG12D cells, HiBiT luminescence; for Dmax: ASPC1, AsPC-1 HiBiT-KRASG12D cells, maximum degradation observed
T2 construct: insert the HiBiT tag onto the N-terminus of one or more of the endogenous KRAS alleles; endogenous in cells; host or cells: AsPC-1 (ATCC CRL-1682), CRISPR-Cas9 knock-in clone, one tagged allele
Procedure, shortened: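 Endogenous KRASG12D levels were measured via an N-terminal HiBiT tag knocked into AsPC-1 cells. Cells received compound titrations for 24 hours, and HiBiT luminescence was detected after a 45-minute lytic reagent incubation at room temperature.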

T1 sequence (P01116 1-188 isoform P01116-2 G12C): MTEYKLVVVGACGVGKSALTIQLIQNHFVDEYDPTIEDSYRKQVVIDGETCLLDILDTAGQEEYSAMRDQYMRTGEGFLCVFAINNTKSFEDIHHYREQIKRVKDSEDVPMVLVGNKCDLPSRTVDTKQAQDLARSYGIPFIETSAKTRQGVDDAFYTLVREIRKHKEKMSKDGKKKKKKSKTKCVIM
T2 sequence (P01116 1-188 isoform P01116-2 G12D): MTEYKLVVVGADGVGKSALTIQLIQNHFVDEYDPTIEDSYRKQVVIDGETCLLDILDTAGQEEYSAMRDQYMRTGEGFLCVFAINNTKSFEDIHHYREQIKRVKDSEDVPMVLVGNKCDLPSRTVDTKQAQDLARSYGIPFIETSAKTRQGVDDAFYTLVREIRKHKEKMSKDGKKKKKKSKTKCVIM

SMILES	DC50 [1] [µM]	DC50 [2] [nM]	Dmax [2] [%]	Dmax [1] [%]
C#Cc1cccc2cc(O)cc(-c3ncc4c(N5CC6CCC(C6)C5)nc(OCCN5CCC(COc6cc([C@H](C(=O)N7C[C@H](O)C[C@H]7C(=O)N[C@@H](C)c7ccc(-c8scnc8C)cc7)C(C)C)on6)CC5)nc4c3F)c12 [Compound 18, (2S,4R)-1-[(2R)-2-[3-[[1-[2-[4-(3-azabicyclo[3.2.1]octan-3-yl)-7-(8-ethynyl-3-hydroxy-1-naphthyl)-8-fluoro-pyrido[4,3-d]pyrimidin-2-yl]oxyethyl]-4-piperidyl]methoxy]isoxazol-5-yl]-3-methyl-butanoyl]-4-hydroxy-N-[(1S)-1-[4-(4-methylthiazol-5-yl)phenyl]ethyl]pyrrolidine-2-carboxamide]	> 3	> 3000		
CCc1cccc2cc(O)cc(-c3ncc4c(N5CC6CCC(C5)N6)nc(OCCN5CCC(COc6cc([C@H](C(=O)N7C[C@H](O)C[C@H]7C(=O)N[C@@H](C)c7ccc(-c8scnc8C)cc7)C(C)C)on6)CC5)nc4c3F)c12 [Compound 20, (2S,4R)-1-[(2R)-2-[3-[[1-[2-[4-(3,8-diazabicyclo[3.2.1]octan-3-yl)-7-(8-ethyl-3-hydroxy-1-naphthyl)-8-fluoro-pyrido[4,3-d]pyrimidin-2-yl]oxyethyl]-4-piperidyl]methoxy]isoxazol-5-yl]-3-methyl-butanoyl]-4-hydroxy-N-[(1S)-1-[4-(4-methylthiazol-5-yl)phenyl]ethyl]pyrrolidine-2-carboxamide]	> 3	< 600	80 to 100	
CCc1cccc2cc(O)cc(-c3ncc4c(N5CC6CCC(C6)C5)nc(OCCN5CCC(COCC(=O)N[C@H](C(=O)N6C[C@H](O)C[C@H]6C(=O)N[C@@H](C)c6ccc(-c7scnc7C)cc6)C(C)(C)C)CC5)nc4c3F)c12 [Compound 19, (2S,4R)-1-[(2S)-2-[[2-[[1-[2-[4-(3-azabicyclo[3.2.1]octan-3-yl)-7-(8-ethyl-3-hydroxy-1-naphthyl)-8-fluoro-pyrido[4,3-d]pyrimidin-2-yl]oxyethyl]-4-piperidyl]methoxy]acetyl]amino]-3,3-dimethyl-butanoyl]-4-hydroxy-N-[(1S)-1-[4-(4-methylthiazol-5-yl)phenyl]ethyl]pyrrolidine-2-carboxamide]	1 to 3	> 3000		20 to 60
Cc1ncsc1-c1ccc([C@H](C)NC(=O)[C@@H]2C[C@@H](O)CN2C(=O)[C@@H](c2cc(N3CCN(C(=O)OC[C@H]4CC[C@@]5(COc6nc(N7CC8CCC(C7)N8)c7cnc(-c8cc(O)cc9ccccc89)c(F)c7n6)CCCN45)CC3)no2)C(C)C)cc1 [Compound 37, [(3R,7aR)-7a-{[(4-{3,8-diazabicyclo[3.2.1]octan-3-yl}-8-fluoro-7-(3-hydroxynaphthalen-1-yl)pyrido[4,3-d]pyrimidin-2-yl)oxy]methyl}-hexahydro-1H-pyrrolizin-3-yl]methyl 4-{5-[(2R)-1-[(2S,4R)-4-hydroxy-2-{[(1S)-1-[4-(4-methyl-1,3-thiazol-5-yl)phenyl]ethyl]carbamoyl}pyrrolidin-1-yl]-3-methyl-1-oxobutan-2-yl]-1,2-oxazol-3-yl}piperazine-1-carboxylate]	> 3	< 600	80 to 100	
CCc1cccc2cc(O)cc(-c3ncc4c(N5CCCCCC5)nc(OC[C@@]56CCCN5[C@H](COC(=O)N5CCN(c7cc([C@H](C(=O)N8C[C@H](O)C[C@H]8C(=O)N[C@@H](C)c8ccc(-c9scnc9C)cc8)C(C)C)on7)CC5)CC6)nc4c3F)c12 [Compound 42, [(3S,7aS)-7a-({[4-(azepan-1-yl)-7-(8-ethyl-3-hydroxynaphthalen-1-yl)-8-fluoropyrido[4,3-d]pyrimidin-2-yl]oxy}methyl)-hexahydro-1H-pyrrolizin-3-yl]methyl 4-{5-[(2R)-1-[(2S,4R)-4-hydroxy-2-{[(1S)-1-[4-(4-methyl-1,3-thiazol-5-yl)phenyl]ethyl]carbamoyl}pyrrolidin-1-yl]-3-methyl-1-oxobutan-2-yl]-1,2-oxazol-3-yl}piperazine-1-carboxylate]	≤ 0.6	< 600	80 to 100	80 to 100
C#Cc1cccc2cc(O)cc(-c3ncc4c(N5CC6CCC(C5)N6)nc(OCCN5CCC6(CC5)CN(c5cc([C@H](C(=O)N7C[C@H](O)C[C@H]7C(=O)N[C@@H](C)c7ccc(-c8scnc8C)cc7)C(C)C)on5)C6)nc4c3F)c12 [Compound 36, (2S,4R)-1-[(2R)-2-[3-(7-{2-[(4-{3,8-diazabicyclo[3.2.1]octan-3-yl}-7-(8-ethynyl-3-hydroxynaphthalen-1-yl)-8-fluoropyrido[4,3-d]pyrimidin-2-yl)oxy]ethyl}-2,7-diazaspiro[3.5]nonan-2-yl)-1,2-oxazol-5-yl]-3-methylbutanoyl]-4-hydroxy-N-[(1S)-1-[4-(4-methyl-1,3-thiazol-5-yl)phenyl]ethyl]pyrrolidine-2-carboxamide]	> 3	< 600	80 to 100	
CCc1cccc2cc(O)cc(-c3ncc4c(N5CC6CCC(C5)N6)nc(OCCN5CCC(COCC(=O)N[C@H](C(=O)N6C[C@H](O)C[C@H]6C(=O)N[C@@H](C)c6ccc(-c7scnc7C)cc6)C(C)(C)C)CC5)nc4c3F)c12 [Compound 21, (2S,4R)-1-[(2S)-2-[[2-[[1-[2-[4-(3,8-diazabicyclo[3.2.1]octan-3-yl)-7-(8-ethyl-3-hydroxy-1-naphthyl)-8-fluoro-pyrido[4,3-d]pyrimidin-2-yl]oxyethyl]-4-piperidyl]methoxy]acetyl]amino]-3,3-dimethyl-butanoyl]-4-hydroxy-N-[(1S)-1-[4-(4-methylthiazol-5-yl)phenyl]ethyl]pyrrolidine-2-carboxamide]	> 3	< 600	80 to 100	
C#Cc1cccc2cc(O)cc(-c3ncc4c(N5CC6CCC(C5)N6)nc(OCCN5CCC(COc6cc([C@H](C(=O)N7C[C@H](O)C[C@H]7C(=O)N[C@@H](C)c7ccc(-c8scnc8C)cc7)C(C)C)on6)CC5)nc4c3F)c12 [Compound 48, (2S,4R)-1-[(2R)-2-{3-[(1-{2-[(4-{3,8-diazabicyclo[3.2.1]octan-3-yl}-7-(8-ethynyl-3-hydroxynaphthalen-1-yl)-8-fluoropyrido[4,3-d]pyrimidin-2-yl)oxy]ethyl}piperidin-4-yl)methoxy]-1,2-oxazol-5-yl}-3-methylbutanoyl]-4-hydroxy-N-[(1S)-1-[4-(4-methyl-1,3-thiazol-5-yl)phenyl]ethyl]pyrrolidine-2-carboxamide]	> 3	< 600	80 to 100	
